Test results from patent US20230183237A1, “COMPETITIVE AND NONCOMPETITIVE INHIBITORS OF THE MUSCARINIC ACETYLCHOLINE RECEPTOR M5” (Vanderbilt University, priority 2020, published 2023).
Where two headings read alike, the source gives them in different places.

Biological target: T1, hM5 (Homo sapiens, UniProt P08912)
T1 construct: expressed in transfected cells
T1 sequence (P08912 1-532): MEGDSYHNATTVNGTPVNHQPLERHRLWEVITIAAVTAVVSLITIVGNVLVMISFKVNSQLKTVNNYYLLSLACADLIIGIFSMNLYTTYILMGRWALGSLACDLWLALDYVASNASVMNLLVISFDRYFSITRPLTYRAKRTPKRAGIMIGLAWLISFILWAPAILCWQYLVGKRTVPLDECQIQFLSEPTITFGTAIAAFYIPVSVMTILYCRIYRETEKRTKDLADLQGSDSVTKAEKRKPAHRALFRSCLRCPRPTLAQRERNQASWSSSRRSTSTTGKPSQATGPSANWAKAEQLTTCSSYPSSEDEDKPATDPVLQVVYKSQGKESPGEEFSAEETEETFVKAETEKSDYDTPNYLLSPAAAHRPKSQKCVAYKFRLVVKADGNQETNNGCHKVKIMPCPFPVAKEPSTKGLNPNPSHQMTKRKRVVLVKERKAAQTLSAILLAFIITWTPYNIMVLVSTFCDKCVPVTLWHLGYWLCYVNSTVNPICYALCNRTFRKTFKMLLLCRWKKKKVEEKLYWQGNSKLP
Test: Calcium mobilization concentration-response (IC50 vs EC80 acetylcholine), CHO hM5
Type: cell-based
Settings: CELL LINE hM5, read-out: IC50
Outline: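 IC50 values derive from percent maximal acetylcholine response after an EC80 ACh addition, measured as kinetic calcium fluorescence (static ratio, max−min). Test compounds were added 140 s before agonist. Cells: stable hM5-CHO in HEPES-buffered HBSS with 2.5 mM probenecid, pH 7.4; ≥3 independent triplicate determinations.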

[1] = calcium mobilization, EC80 acetylcholine addition

IC50 (vs EC80 acetylcholine)	IC50 [1]	Compound
159 nM		CC(C)Oc1c(S(=O)(=O)N2CCC(c3cn4ncnc4cc3Cl)CC2)cnn1C [Compound 604, 7-chloro-6-(1-((5-isopropoxy-1-methyl-1H-pyrazol-4-yl)sulfonyl)piperidin-4-yl)-[1,2,4]triazolo[1,5-a]pyridine]
92 nM		[2H]C1([2H])CC(c2cn3ncnc3cc2F)CC([2H])([2H])N1S(=O)(=O)c1cnn(C)c1C(F)F [Compound 476, 6-(1-((5-(difluoromethyl)-1-methyl-1H-pyrazol-4-yl)sulfonyl)piperidin-4-yl-2,2,6,6-d4)-7-fluoro-[1,2,4]triazolo[1,5-a]pyridine]
	1400 nM	COc1cc2ncnn2cc1C1CCN(S(=O)(=O)c2cnn3c2CCC3)CC1 [Compound 263, 6-(1-((5,6-dihydro-4H-pyrrolo[1,2-b]pyrazol-3-yl)sulfonyl)piperidin-4-yl)-7-methoxy-[1,2,4]triazolo[1,5-a]pyridine]
912 nM		Cc1cc2ncnn2cc1C1(F)CCN(S(=O)(=O)c2cnn(C)c2C(F)(F)F)CC1 [Compound 423, 6-(4-fluoro-1-((1-methyl-5-(trifluoromethyl)-1H-pyrazol-4-yl)sulfonyl)piperidin-4-yl)-7-methyl-[1,2,4]triazolo[1,5-a]pyridine]
	33 nM	O=S(=O)(c1cnn2c1CCCC2)N1CCC(c2cn3ncnc3cc2F)CC1 [Compound 237, 7-fluoro-6-(1-((4,5,6,7-tetrahydropyrazolo[1,5-a]pyridin-3-yl)sulfonyl)piperidin-4-yl)-[1,2,4]triazolo[1,5-a]pyridine]
	689 nM	Cc1cc2ncnn2nc1C1CCN(S(=O)(=O)c2cnc(C)n2C)CC1 [Compound 216, 6-(1-((1,2-dimethyl-1H-imidazol-5-yl)sulfonyl)piperidin-4-yl)-7-methyl-[1,2,4]triazolo[1,5-b]pyridazine]
	6000 nM	Cc1cc2nccn2cc1C1CCN(S(=O)(=O)c2ccc3ncsc3c2)CC1 [Compound 68, 6-((4-(7-methylimidazo[1,2-a]pyridin-6-yl)piperidin-1-yl)sulfonyl)benzo[d]thiazole]
	4900 nM	Cc1cc(S(=O)(=O)N2CCC(c3nn4ccnc4cc3C)CC2)c(C)s1 [Compound 311, 6-(1-((2,5-dimethylthiophen-3-yl)sulfonyl)piperidin-4-yl)-7-methylimidazo[1,2-b]pyridazine]
	> 10000 nM	O=S(=O)(c1cc2c(cc1F)OCC2)N1CCC(c2cn3ncnc3cc2F)CC1 [Compound 106, 7-fluoro-6-(1-((6-fluoro-2,3-dihydrobenzofuran-5-yl)sulfonyl)piperidin-4-yl)-[1,2,4]triazolo[1,5-a]pyridine]
29 nM		[2H]C1([2H])CC(c2cn3ncnc3cc2Cl)CC([2H])([2H])N1S(=O)(=O)c1cn(C)nn1 [Compound 579, 7-chloro-6-(1-((1-methyl-1H-1,2,3-triazol-4-yl)sulfonyl)piperidin-4-yl-2,2,6,6-d4)-[1,2,4]triazolo[1,5-a]pyridine]
> 10000 nM		Cc1cc2ncnn2nc1C1CCN(S(=O)(=O)c2cn(C)nn2)CC1 [Compound 559, 7-methyl-6-(1-((1-methyl-1H-1,2,3-triazol-4-yl)sulfonyl)piperidin-4-yl)-[1,2,4]triazolo[1,5-b]pyridazine]
	618 nM	Cc1cc2ncnn2cc1C1CCN(S(=O)(=O)c2cnn3c2CCC3)C(C)C1 (centres unmarked) [Compound 363, 6-(1-((5,6-dihydro-4H-pyrrolo[1,2-b]pyrazol-3-yl)sulfonyl)-2-methylpiperidin-4-yl)-7-methyl-[1,2,4]triazolo[1,5-a]pyridine]
	> 10000 nM	O=S(=O)(c1cnc2n1CCC2)N1CCC(c2cn3ncnc3cc2F)CC1 [Compound 233, 6-(1-((6,7-dihydro-5H-pyrrolo[1,2-a]imidazol-3-yl)sulfonyl)piperidin-4-yl)-7-fluoro-[1,2,4]triazolo[1,5-a]pyridine]
	55 nM	CCc1cc2ncnn2cc1C1=CCN(S(=O)(=O)c2cnn(C)c2C)CC1 [Compound 194, 6-(1-((1,5-dimethyl-1H-pyrazol-4-yl)sulfonyl)-1,2,3,6-tetrahydropyridin-4-yl)-7-ethyl-[1,2,4]triazolo[1,5-a]pyridine]
